We go through 27 compounds from patent publication US6008372A, “Substituted dinaphthylmethyl and diheteroarylmethylacetyl histidine inhibitors of protein farnesyltransferase” (Warner-Lambert Company, priority 1998, dated 1999).

Each structure is given as a SMILES string. Like-named read-outs stand apart in the source and are kept apart here.

This test deals with T1, rat brain farnesyl protein transferase (Rattus norvegicus, UniProt Q02293+Q04631).
T1 construct: 40-fold purified rat brain farnesyl protein transferase; from tissue; host or cells: rat brain
As to the kind of experiment: Protein:farnesyltransferase (PFT/FPT) inhibitory activity assay. In kind it is biochemical.

Where [1] appears, read: Hepes (without 5 mM phosphate), read-out: Farnesyl Protein Transferase Inhibition, Hepes, IC50.
Where [2] appears, read: Hepes/5 mM PO4^-3, pH 7.4, read-out: Farnesyl Protein Transferase Inhibition, Hepes/5 mM PO4^-3, IC50.

Turning to `CCC(C)OC(=O)[C@H](Cc1c[nH]cn1)NC(=O)C(Cc1cccc2ccccc12)Cc1cccc2ccccc12` (mixture of isomers) [Example 14, (S)-3-(1H-Imidazol-4-yl)-2-(3-naphthalen-1-yl-2-naphthalen-1-ylmethyl-propionylamino)-propionic acid, (±)-sec-butyl ester], the IC50 is 0.82 µM under setting [1] and 0.54 µM under setting [2].

With `CC(C#N)OC(=O)[C@H](Cc1c[nH]cn1)NC(=O)C(Cc1cccc2ccccc12)Cc1cccc2ccccc12` (mixture of isomers) [Example 61, (S)-3-(1H-Imidazol-4-yl)-2-(3-naphthalen-1-yl-2-naphthalen-1-ylmethyl-propionylamino)-propionic acid, (±)-1-cyano-ethyl ester], the IC50 reads like this: under setting [1], 0.64 µM; under setting [2], 0.61 µM.

In the case of `COC(=O)[C@@H](Cc1c[nH]cn1)NC(=O)C(Cc1cccc2ccccc12)Cc1cccc2ccccc12` [Example 2, (R)-3-(1H-Imidazol-4-yl)-2-(3-naphthalen-1-yl-2-naphthalen-1-ylmethyl-propionylamino)-propionic acid, methyl ester], the IC50 is, setting by setting: under setting [1], 12 µM; under setting [2], 10 µM.

With `O=C(N[C@@H](Cc1c[nH]cn1)C(=O)O)C(Cc1cccc2ccccc12)Cc1cccc2ccccc12` [Example 3, (S)-3-(1H-Imidazol-4-yl)-2-(3-naphthalen-1-yl-2-naphthalen-1-ylmethyl-propionylamino)-propionic acid], the IC50 by setting is: under setting [1], 1 µM; under setting [2], 2.3 µM.

Take `O=C(N[C@H](Cc1c[nH]cn1)C(=O)O)C(Cc1cccc2ccccc12)Cc1cccc2ccccc12` [Example 4, (R)-3-(1H-Imidazol-4-yl)-2-(3-naphthalen-1-yl-2-naphthalen-1-ylmethyl-propionylamino)-propionic acid]: the IC50 reads like this: under setting [1], 6.1 µM; under setting [2], 19.5 µM.

With `CCCCOC(=O)[C@H](Cc1c[nH]cn1)NC(=O)C(Cc1cccc2ccccc12)Cc1cccc2ccccc12` [Example 9, (S)-3-(1H-Imidazol-4-yl)-2-(3-naphthalen-1-yl-2-naphthalen-1-ylmethyl-propionylamino)-propionic acid, butyl ester], the IC50 was 1.3 µM under setting [1] and 1.1 µM under setting [2].

`O=C(N[C@@H](Cc1c[nH]cn1)C(=O)OCc1ccccc1)C(Cc1cccc2ccccc12)Cc1cccc2ccccc12` [Example 10, (S)-3-(1H-Imidazol-4-yl)-2-(3-naphthalen-1-yl-2-naphthalen-1-ylmethyl-propionylamino)-propionic acid, benzyl ester]: the IC50 runs as follows: under setting [1], 4.2 µM; under setting [2], 2.9 µM.

Turning to `O=C(N[C@@H](Cc1c[nH]cn1)C(=O)OC1CCCCC1)C(Cc1cccc2ccccc12)Cc1cccc2ccccc12` [Example 11, (S)-3-(1H-Imidazol-4-yl)-2-(3-naphthalen-1-yl-2-naphthalen-1-ylmethyl-propionylamino)-propionic acid, cyclohexyl ester], the IC50 by setting is: under setting [1], 20 µM; under setting [2], 14 µM.

As to `O=C(N[C@@H](Cc1c[nH]cn1)C(=O)OCC1CC1)C(Cc1cccc2ccccc12)Cc1cccc2ccccc12` [Example 12, (S)-3-(1H-Imidazol-4-yl)-2-(3-naphthalen-1-yl-2-naphthalen-1-ylmethyl-propionylamino)-propionic acid, cyclopropylmethyl ester], the IC50 is, setting by setting: under setting [1], 0.4 µM; under setting [2], 0.25 µM.

On to `CCCCc1nc(COC(=O)[C@H](Cc2c[nH]cn2)NC(=O)C(Cc2cccc3ccccc23)Cc2cccc3ccccc23)c[nH]1` [Example 13, (S)-3-(1H-Imidazol-4-yl)-2-(3-naphthalen-1-yl-2-naphthalen-1-ylmethyl-propionylamino)-propionic acid, 2-butyl-1H-imidazol-4-ylmethyl ester], for which the IC50 turned out to be 2.1 µM under setting [1] and 1.7 µM under setting [2].

As to `C#CCOC(=O)[C@H](Cc1c[nH]cn1)NC(=O)C(Cc1cccc2ccccc12)Cc1cccc2ccccc12` [Example 16, (S)-3-(1H-Imidazol-4-yl)-2-(3-naphthalen-1-yl-2-naphthalen-1-ylmethyl-propionylamino)-propionic acid, prop-2-ynyl ester], the IC50 was 0.5 µM under setting [1] and 0.59 µM under setting [2].

Consider `O=C(N[C@@H](Cc1c[nH]cn1)C(=O)OCCOCc1ccccc1)C(Cc1cccc2ccccc12)Cc1cccc2ccccc12` [Example 18, (S)-3-(1H-Imidazol-4-yl)-2-(3-naphthalen-1-yl-2-naphthalen-1-ylmethyl-propionylamino)-propionic acid, 2-benzyloxyethyl ester], for which the IC50 was found to be 0.57 µM under setting [1] and 0.54 µM under setting [2].

For `O=C(N[C@@H](Cc1c[nH]cn1)C(=O)OCCc1cccs1)C(Cc1cccc2ccccc12)Cc1cccc2ccccc12` [Example 19, (S)-3-(1H-Imidazol-4-yl)-2-(3-naphthalen-1-yl-2-naphthalen-1-ylmethyl-propionylamino)-propionic acid, 2-thiophen-2-yl-ethyl ester], the IC50 runs as follows: under setting [1], 1.1 µM; under setting [2], 1.1 µM.

With `O=C(N[C@@H](Cc1c[nH]cn1)C(=O)OCc1ccsc1)C(Cc1cccc2ccccc12)Cc1cccc2ccccc12` [Example 20, (S)-3-(1H-Imidazol-4-yl)-2-(3-naphthalen-1-yl-2-naphthalen-1-ylmethyl-propionylamino)-propionic acid, thiophen-3-ylmethyl ester], the IC50 reads like this: under setting [1], 3.5 µM; under setting [2], 2.4 µM.

`CCN(CC)CCOC(=O)[C@H](Cc1c[nH]cn1)NC(=O)C(Cc1cccc2ccccc12)Cc1cccc2ccccc12` [Example 21, (S)-3-(1H-Imidazol-4-yl)-2-(3-naphthalen-1-yl-2-naphthalen-1-ylmethyl-propionylamino)-propionic acid, 2-diethylamino-ethyl ester]: the IC50 reads like this: under setting [1], 21 µM; under setting [2], 9 µM.

As to `O=C(N[C@@H](Cc1c[nH]cn1)C(=O)OCCN1CCOCC1)C(Cc1cccc2ccccc12)Cc1cccc2ccccc12` [Example 22, (S)-3-(1H-Imidazol-4-yl)-2-(3-naphthalen-1-yl-2-naphthalen-1-ylmethyl-propionylamino)-propionic acid, 2-morpholin-4-yl-ethyl ester], the IC50 reads like this: under setting [1], 5.8 µM; under setting [2], 4.3 µM.

Turning to `NC(=O)[C@H](Cc1c[nH]cn1)NC(=O)C(Cc1cccc2ccccc12)Cc1cccc2ccccc12` [Example 24, (S)-N-[1-Carbamoyl-2-(1H-imidazol-4-yl)-ethyl]-3-naphthalen-1-yl-2-naphthalen-1-ylmethyl-propionamide], the IC50 runs as follows: under setting [1], 5.3 µM; under setting [2], 3.8 µM.

Take `O=C(N[C@@H](Cc1c[nH]cn1)C(=O)NCCn1ccnc1)C(Cc1cccc2ccccc12)Cc1cccc2ccccc12` [Example 25, (S)-N-[2-(1H-Imidazol-4-yl)-1-(2-imidazol-1-yl-ethylcarbamoyl)-ethyl]-3-naphthalen-1-yl-2-naphthalen-1-ylmethyl-propionamide]: the IC50 is, setting by setting: under setting [1], 1.9 µM; under setting [2], 1.5 µM.

Regarding `CCSCCNC(=O)[C@H](Cc1c[nH]cn1)NC(=O)C(Cc1cccc2ccccc12)Cc1cccc2ccccc12` [Example 26, (S)-N-[1-(2-Ethylsulfanyl-ethylcarbamoyl)-2-(1H-imidazol-4-yl)-ethyl]-3-naphthalen-1-yl-2-naphthalen-1-ylmethyl-propionamide], the IC50 runs as follows: under setting [1], 12 µM; under setting [2], 8.7 µM.

On to `O=C(N[C@@H](Cc1c[nH]cn1)C(=O)NCCCn1ccnc1)C(Cc1cccc2ccccc12)Cc1cccc2ccccc12` [Example 28], for which the IC50 under setting [1] was found to be 8.1 µM and the IC50 under setting [2] turned out to be 4.2 µM.

For `O=C(N[C@@H](Cc1c[nH]cn1)C(=O)NCCO)C(Cc1cccc2ccccc12)Cc1cccc2ccccc12` [Example 29, (S)-N-[1-(2-Hydroxy-ethylcarbamoyl)-2-(1H-imidazol-4-yl)-ethyl]-3-naphthalen-1-yl-2-naphthalen-1-ylmethyl-propionamide], the IC50 under setting [1] stood at 3.2 µM and the IC50 under setting [2] was determined as 3.7 µM.

Consider `CC(C)NC(=O)[C@H](Cc1c[nH]cn1)NC(=O)C(Cc1cccc2ccccc12)Cc1cccc2ccccc12` [Example 30, (S)-N-[2-(1H-Imidazol-4-yl)-1-isopropylcarbamoyl-ethyl]-3-naphthalen-1-yl-2-naphthalen-1-ylmethyl-propionamide], for which the IC50 came out at 4.6 µM under setting [1] and 3.5 µM under setting [2].

As to `O=C(N[C@@H](Cc1c[nH]cn1)C(=O)NCCN1CCOCC1)C(Cc1cccc2ccccc12)Cc1cccc2ccccc12` [Example 31, (S)-N-[2-(1H-Imidazol-4-yl)-1-(2-morpholin-4-yl-ethylcarbamoyl)-ethyl]-3-naphthalen-1-yl-2-naphthalen-1-ylmethyl-propionamide], the IC50 under setting [1] came out at 26 µM and the IC50 under setting [2] worked out at 15 µM.

In the case of `CCN(CC)CCNC(=O)[C@H](Cc1c[nH]cn1)NC(=O)C(Cc1cccc2ccccc12)Cc1cccc2ccccc12` [Example 32], the IC50 under setting [1] is 19 µM and the IC50 under setting [2] is 14 µM.

In the case of `CCNC(=O)[C@H](Cc1c[nH]cn1)NC(=O)C(Cc1cccc2ccccc12)Cc1cccc2ccccc12` [Example 34, (S)-N-[1-Ethylcarbamoyl-2-(1H-imidazol-4-yl)-ethyl]-3-naphthalen-1-yl-2-naphthalen-1-ylmethyl-propionamide], the IC50 under setting [1] stood at 2.9 µM and the IC50 under setting [2] was 2 µM.

Regarding `NS(=O)(=O)c1ccc(CCNC(=O)[C@H](Cc2c[nH]cn2)NC(=O)C(Cc2cccc3ccccc23)Cc2cccc3ccccc23)cc1` [Example 35], the IC50 under setting [1] was 15 µM and the IC50 under setting [2] came to 14 µM.

On to `O=C(N[C@@H](Cc1c[nH]cn1)C(=O)NCCOCc1ccccc1)C(Cc1cccc2c1CCCC2)Cc1cccc2c1CCCC2` [Example 38, (S)-N-[1-(2-Benzyloxy-ethylcarbamoyl)-2-(1H-imidazol-4-yl)-ethyl]-3-(5,6,7,8-tetrahydro-naphthalen-1-yl)-2-(5,6,7,8-tetrahydro-naphthalen-1-ylmethyl)-propionamide], for which the IC50 runs as follows: under setting [1], 0.78 µM; under setting [2], 0.85 µM.
